From patent US11028111B2, “Compound for treating metabolic diseases and preparation method and use thereof” (Xi' An Biocare Pharma Ltd., priority 2017, dated 2021)

Assays:
[1] = tested on: 17α-Ethinylestradiol (E2-17α) induced cholestasis in rats; test: Bile discharge in 17α-ethinylestradiol (E2-17α) induced cholestasis in rats; format: in vivo, Sprague Dawley rats; conditions: for Bile flow rate compared with the E2-17α group / Effect on ameliorating intrahepatic cholestasis, promoting bile excretion: E2-17α cholestasis rats; for Bile flow rate compared with the E2-17α group: P<0.05 vs E2-17α; for Effect on ameliorating intrahepatic cholestasis, promoting bile excretion: conclusion; for Bile discharge amount compared with the ursodeoxycholic acid group: 105 minutes after administration, UDCA 15 mg/kg
Experimental: Preparation of 1.0% CMC-Na solution: 1 p CMC-Na powder was weighed and added to 100 mL (50° C.) of distilled water, the mixture was rapidly stirred with a stirrer for 1 hour to fully swell, thereby to obtain a 1% CMC-Na solution.
Preparation of E2-17α solution in propylene glycol: 54/0.98=56 mp of E2-17α was weighed, dissolved in […] of propane-1,2-diol, shaked by a vortexer for 1 hour, thereby to obtain a 7 mp/mL suspension of E2-17α.
(§1) 17α-Ethinylestradiol (E2-17α) was administered by subcutaneous injection into the neck for model establishment for 7 days. Meantime, the test compounds were suspended in a 1% CMC-Na solution and administered by intragastric administration for 7 days during the E2-17α modeling.
(§2) E2-17α in propylene glycol was administered to rats for 7 days to establish the model, and different test samples in CMC-Na solution were administered by intragastric administration. On the 8th day, 1 mL of rat fasting blood sample was collected for detection of serum biochemical indicators, and E2-17α in propylene glycol was continuously administered to establish the model, and different test samples CMC-Na solution were administered by intragastric administration. After 0.5 hours of administration on the 9th day, the rats were weighed and anesthetized with 10% urethane (10 mL/kg) via intraperitoneal injection. After anesthesia, the rat was fixed on a board. A midline abdominal incision was made from the upper acetabular area, and the incision was about 2 to 3 cm. The indoor temperature should be maintained during the experiment, the body temperature of the rats was maintained and bile outflow was promoted. Handle of ophthalmic forceps was used to turn the liver up and find the duodenum and stomach junction. A suture (size 0) was placed at the junction to reserve. On the duodenum, about 2 cm away from the pylorus, a thin tube with a yellow transparent tube perpendicular to the duodenum could be found passing through the pancreas, that is, the common bile duct. At the junction of the common bile duct and the duodenum, the common bile duct was separated by an ophthalmic curved forceps, but was careful not to break the small blood vessels around the bile duct and avoided stimulating the pancreatic tissue by hand. After the separation, two sutures were place, and the suture close to the intestine end was ligated, as a traction suture, ophthalmic scissors were used to obliquely cut a small opening in the wall of the tube, a prepared pancreatic juice collection tube was inserted into the small opening. A mixture of yellow bile and pancreatic juice flowed out immediately after the insertion. The tube was ligated and fixed, and this tube was used to collect bile. After completion of the intubation, the skin was sutured. The other end of the bile duct intubation was taken out, flowing out to a fixed 0.5 mL centrifuge tube. Bile was continuously collected 8 times once every 15 minutes, until 120 minutes.
After completion of the intubation, the skin was sutured to prevent water evaporation of the abdominal cavity. The other end of the bile duct intubation was taken out, and the bile flowed out to a fixed 0.5 mL collection tube. Bile was continuously collected 8 times once every 15 minutes for a total of 120 minutes. Before the experiment, the collection tube was accurately weighed using an analytical balance. After the bile was collected in the experiment, the total weight of the bile and the collection tube was weighed, and the weight of the bile in the tube was calculated by subtraction and converted to a volume based on 1 g/mL.
(§3) The data were analyzed using SPSS18.0 statistics software. Measurement data were compared between the two groups using the t test. Multiple groups of means were compared using one-way analysis of variance (ANOVA) and multiple comparisons between groups. Data mean±standard error (Mean±SEM.) or mean±standard deviation (Mean±SD.).

[2] = tested on: 17α-Ethinylestradiol (E2-17α) induced cholestasis in rats; test: Serum ALT, AST, ALP in E2-17α induced cholestasis rats; format: in vivo, Sprague Dawley rats; conditions: for Serum ALP / Serum ALT / Serum AST: E2-17α cholestasis rats after intragastric administration, x ± s; for Values of ALT, AST, and ALP (serum): E2-17α cholestasis rats, in words
Experimental: as §1, §2
The blood sample was allowed to stand in a 37° C. water bath for 10 minutes, centrifuged at 3000 rpm (1368 g)×10 min, the serum was separated conventionally, dispensed and frozen at −20° C. for storage. The indicators to be detected in serum included ALT, AST, and ALP. The detection methods of the above indicators were all carried out in accordance with the relevant instructions of the kit.
as §3

[3] = tested on: rat model of cirrhotic portal hypertension (TAA); test: Serum indicators (ALT, AST, ALP, ALB, γ-GT, TBA) in TAA cirrhotic portal hypertension rats; format: in vivo; conditions: for Serum ALT level / Serum AST level: P<0.05
Experimental: (§4) A rat model of cirrhotic portal hypertension was established by intraperitoneal injection of TAA. Except that the blank control group was intraperitoneally injected with saline, remaining animals were intraperitoneally injected (i.p.) with 10% thioacetamide (TAA) in saline solution to establish the model. The dose was 200 mg/Kg, and the administration volume was 2 mL/Kg. All experimental animals were intraperitoneally injected with TAA or an equal volume of saline once every three days. Before each dose, the rat shaving beddings should be replaced by clean ones in advance. The body weight was measured once every two modeling administration. The body weight of the rats increased or decreased by 10% compared with the previous one, the dose of TAA increased or decreased by […] correspondingly. The administration was individualized to strictly control body weight change of each rat, which could effectively improve the success rate and uniformity of modeling.
(§5) The successfully modeled animals were randomly grouped, 12 rats per group, and 20 rats in the blank control group. Portal hypertension was induced by TAA in rats, and a portal hypertension model was established after 13 days. The test compound was administered once a day for 10 days. The specific groupings are shown as follows:
At the end of the administration, orbital blood was collected from the rats. The blood sample was placed in a 37° C. water bath for 10 minutes, centrifuged for 10 minutes at 3000 r/min (1370 g). Upper layer of the serum was taken and detected directly, or temporarily stored at −80° C., for serologic indicator measurement. After the blood samples were collected, the rats were fed with foods and water for 3 days.
1) 1.5 mL of orbital blood was collected before the experiment, of which the steps were the same as the aforesaid steps, to measure serum ALT, AST, ALP, γ-GT and TBA contents.

[4] = tested on: rat model of cirrhotic portal hypertension (TAA); test: Portal vein pressure in TAA-induced rat model of cirrhotic portal hypertension; format: in vivo, rats; conditions: i.g.
Experimental: 1) Preparation of saline solution of TAA: 10 g of thioacetamide (TAA) was weighed and dissolved in 100 mL of saline solution, and then filtered through a 0.22 μm sterile membrane filter into a sterile bottle.
2) Preparation of 0.5% CMC-Na suspension of test compound: 400 mg of Compound 1-H, Compound 1-IP, Compound 1-Cl, Compound 1-Mel or Compound 2-0 were weighed and dissolved in 100 mL of 0.5% CMC-Na solution, and shaken by a vortexer for 30 minutes, thereby to obtain 20 mg/Kg (high dose) groups. That is, CMC-Na suspension of 4 mg/mL of Compounds 1-H, 1-IP, 1-Cl, 1-Mel or 2-0. For the middle and low dose groups, drug preparation methods were the same.
as §4
The successfully modeled animals were randomly grouped, 12 rats per group, and 20 rats in the blank control group. Portal hypertension was induced by TAA in rats, and a portal hypertension model was established after 13 days. The test compound was administered once a day for 10 days. […]
Rats were fasted for 12 hours before the experiment, and were anesthetized with 10% chloral hydrate via intraperitoneal injection. […] Stable portal vein pressure was measured. […]

[5] = tested on: rat model of cirrhotic portal hypertension (TAA); test: Liver appearance and liver pathological sections (Masson, HE) in TAA cirrhotic portal hypertension rats; format: in vivo
Experimental: as §4, §5
2) A small piece at same part of the liver of the rat was cut and fixed in a 10% formaldehyde solution for tissue section pathology observation. An appropriate size of the liver was cut off, and the blood on the surface was washed off quickly with saline, put into a sterile EP tube, cryopreserved in liquid nitrogen for subsequent experiments.

[6] = all administration groups, P<0.05, P<0.01

| Structure (SMILES) | Bile flow rate compared with the E2-17α group [1] | Effect on ameliorating intrahepatic cholestasis, promoting bile excretion [1] | Serum ALP [2] [U/L] | Serum ALT [2] [U/L] | Serum AST [2] [U/L] | Values of ALT, AST, and ALP (serum) [2] | Bile discharge amount compared with the ursodeoxycholic acid group [1] | other results |
| --- | --- | --- | --- | --- | --- | --- | --- | --- |
| CC[C@@H]1C2C[C@H](O)CC[C@]2(C)C2CC[C@@]3(C)C(CC[C@@H]3[C@H](C)CCOP3(=O)OC(C)C[C@@H](c4ccncc4)O3)C2[C@@H]1O (some centres unmarked) [Compound 1-Me1] | significantly increased | significant effect | 235.64 ± 16.26 | 80.64 ± 13.22 | 252.18 ± 16.59 | lower | – | – |
| C[C@H](CCC(=O)O)[C@H]1CC[C@H]2[C@@H]3[C@@H](O)C[C@@H]4C[C@H](O)CC[C@]4(C)[C@H]3CC[C@]12C [UDCA, ursodeoxycholic acid, reference compound] | – | – | 242.18 ± 12.10 | 85.55 ± 13.80 | 263.36 ± 15.35 | – | – | – |
| CC[C@@H]1C2C[C@H](O)CC[C@]2(C)C2CC[C@@]3(C)C(CC[C@@H]3[C@H](C)CCO[P@@]3(=O)OCC[C@@H](c4ccncc4)O3)C2[C@@H]1O (some centres unmarked) [Compound 1-H] | significantly increased | significant effect | 218.64 ± 18.94 | 72.36 ± 14.74 | 228.82 ± 17.74 | lower | significantly higher | Serum ALT level ([3]; 5 mg/Kg group): decreased; Serum AST level ([3]; 5 mg/Kg group): decreased; Serum ALT level ([3]; 10 mg/Kg group): decreased; Serum AST level ([3]; 10 mg/Kg group): decreased; Serum ALT level ([3]; 20 mg/Kg group): decreased; Serum AST level ([3]; 20 mg/Kg group): decreased; Serum TBA level ([3]; all administration groups, P<0.01): decreased; Serum ALP level (FIG. 10 (C)) [3, 6]: decreased; Serum γ-GT level [3, 6]: decreased; Mean percentage change of portal vein pressure (vs mean of TAA group) ([4]; TAA + 5 mg/Kg): > 10%; Mean percentage change of portal vein pressure (vs mean of TAA group) ([4]; TAA + 10 mg/Kg): > 10%; Mean percentage change of portal vein pressure (vs mean of TAA group) ([4]; TAA + 20 mg/Kg): > 10%; Appearance of liver and spleen (liver cirrhosis nodules) compared with TAA group ([5]; TAA + 5 mg/Kg): milder; Liver pathological sections (Masson, HE): liver fibrosis ([5]; TAA + 5 mg/Kg): symptoms of liver fibrosis were ameliorated; Effect on hyperplasia of liver fibrous tissue and pseudolobule formation (pathological indicators) ([5]; TAA rats, all dose groups): certain improvement effects |
| CC(C)[C@@H]1C2C[C@H](O)CC[C@]2(C)C2CC[C@@]3(C)C(CC[C@@H]3[C@H](C)CCOP3(=O)OCC[C@@H](c4ccncc4)O3)C2[C@@H]1O (some centres unmarked) [Compound 1-IP] | significantly increased | significant effect | 230.92 ± 14.00 | 87.42 ± 11.72 | 258.83 ± 10.82 | lower | – | – |
| CC[C@@H]1C2C[C@H](O)CC[C@]2(C)C2CC[C@@]3(C)C(CC[C@@H]3[C@H](C)CCOP3(=O)OCC[C@@H](c4ccnc(Cl)c4)O3)C2[C@@H]1O (some centres unmarked) [Compound 1-Cl] | significantly increased | significant effect | 226.65 ± 12.38 | 77.36 ± 11.42 | 230.89 ± 12.38 | lower | significantly higher | – |
| CC[C@@H]1C2C[C@H](O)CC[C@]2(C)C2CC[C@@]3(C)C(CC[C@@H]3[C@H](C)CCO[P@](=O)(N[C@@H](C)C(=O)COC(C)C)Oc3ccccc3)C2[C@@H]1O (some centres unmarked) [Compound 2-0] | significantly increased | significant effect | 220.35 ± 12.92 | 78.64 ± 10.65 | 236.59 ± 13.06 | lower | – | – |
